Paper PMC5218480 (PLoS ONE, 2017)

Tested on: MV-4-11 cells
Experiment: Gene expression microarray analysis (Affymetrix PrimeView) and GSEA
Assay type: cell-based, human
Set-up: RFU PODN (11730768_x_at) / Fold change /veh PODN (11730768_x_at) / RFU LINC00158 (11744669_a_at) / Fold change /veh LINC00158 (11744669_a_at) / RFU DUSP10 (11751237_a_at) / Fold change /veh DUSP10 (11751237_a_at) / RFU ID3 (11757404_x_at) / Fold change /veh ID3 (11757404_x_at) / RFU PLEKHG5 (11737974_s_at) / Fold change /veh PLEKHG5 (11737974_s_at) / RFU LRRC4B (11730491_at) / Fold change /veh LRRC4B (11730491_at) / RFU GIMAP4 (11747438_a_at) / Fold change /veh GIMAP4 (11747438_a_at) / RFU KRT8 (11758183_x_at) / Fold change /veh KRT8 (11758183_x_at) / RFU CNN1 (11734310_a_at) / Fold change /veh CNN1 (11734310_a_at) / RFU VPS37D (11726825_at) / Fold change /veh VPS37D (11726825_at) / RFU C10orf10 (11716522_x_at) / Fold change /veh C10orf10 (11716522_x_at) / RFU KIR2DL2 /// KIR2DL4 /// KIR2DL5A /// KIR2DL5B /// KIR2DS1 /// KIR2DS2 /// KIR2DS3 /// KIR2DS4 /// KIR3DL3 /// KIR3DL3 /// KIR3DS1 (11738374_at) / Fold change /veh KIR2DL2 /// KIR2DL4 /// KIR2DL5A /// KIR2DL5B /// KIR2DS1 /// KIR2DS2 /// KIR2DS3 /// KIR2DS4 /// KIR3DL3 /// KIR3DL3 /// KIR3DS1 (11738374_at) / RFU C1QL1 (11718748_at) / Fold change /veh C1QL1 (11718748_at) / RFU TMPRSS4 (11747572_a_at) / Fold change /veh TMPRSS4 (11747572_a_at) / RFU HAMP (11756126_x_at) / Fold change /veh HAMP (11756126_x_at) / RFU RNFT2 (11725882_a_at) / Fold change /veh RNFT2 (11725882_a_at) / RFU NR4A2 (11747474_a_at) / Fold change /veh NR4A2 (11747474_a_at) / RFU ABCC12 (11746883_a_at) / Fold change /veh ABCC12 (11746883_a_at) / RFU TMEM136 (11760407_x_at) / Fold change /veh TMEM136 (11760407_x_at) / RFU CLDN22 /// WWC2 (11732394_at) / Fold change /veh CLDN22 /// WWC2 (11732394_at) / RFU HLA-DPB1 (11760878_x_at) / Fold change /veh HLA-DPB1 (11760878_x_at) / RFU SPINT1 (11716480_a_at) / Fold change /veh SPINT1 (11716480_a_at) / RFU GAP43 (11754022_s_at) / Fold change /veh GAP43 (11754022_s_at) / RFU A4GNT (11735810_at) / Fold change /veh A4GNT (11735810_at) / RFU PRB3 (11715151_x_at) / Fold change /veh PRB3 (11715151_x_at) / RFU TUBB4B (11761932_at) / Fold change /veh TUBB4B (11761932_at) / RFU CAPN14 (11732068_a_at) / Fold change /veh CAPN14 (11732068_a_at) / RFU TMCC2 (11721928_a_at) / Fold change /veh TMCC2 (11721928_a_at) / RFU IRGQ (11745062_a_at) / Fold change /veh IRGQ (11745062_a_at) / RFU FAM174B (11720279_a_at) / Fold change /veh FAM174B (11720279_a_at) / RFU TMPRSS4 (11748680_a_at) / Fold change /veh TMPRSS4 (11748680_a_at) / RFU FAM212B (11763350_a_at) / Fold change /veh FAM212B (11763350_a_at) / RFU PLEKHG5 (11743358_a_at) / Fold change /veh PLEKHG5 (11743358_a_at) / RFU ZSCAN30 (11745921_a_at) / Fold change /veh ZSCAN30 (11745921_a_at) / RFU CMKLR1 (11741424_a_at) / Fold change /veh CMKLR1 (11741424_a_at) / RFU LOC101060620 /// MAPK8IP1 (11723275_at) / Fold change /veh LOC101060620 /// MAPK8IP1 (11723275_at) / RFU SPTSSB (11747773_x_at) / Fold change /veh SPTSSB (11747773_x_at) / RFU PRSS12 (11739890_at) / Fold change /veh PRSS12 (11739890_at) / RFU BIN1 (11741810_x_at) / Fold change /veh BIN1 (11741810_x_at) / RFU WNT11 (11732464_a_at) / Fold change /veh WNT11 (11732464_a_at) / RFU C10orf10 (11716521_a_at) / Fold change /veh C10orf10 (11716521_a_at) / RFU C5orf56 (11738089_at) / Fold change /veh C5orf56 (11738089_at) / RFU CYB561 (11721691_x_at) / Fold change /veh CYB561 (11721691_x_at) / RFU ANKRD19P (11752326_a_at) / Fold change /veh ANKRD19P (11752326_a_at) / RFU OR2T12 /// OR2T33 /// OR2T8 (11738714_s_at) / Fold change /veh OR2T12 /// OR2T33 /// OR2T8 (11738714_s_at) / RFU VCAN (11748164_a_at) / Fold change /veh VCAN (11748164_a_at) / RFU JSRP1 (11732532_at) / Fold change /veh JSRP1 (11732532_at) / RFU KRTAP10-11 (11738290_x_at) / Fold change /veh KRTAP10-11 (11738290_x_at) / RFU MYO3A (11730013_a_at) / Fold change /veh MYO3A (11730013_a_at) / RFU EBF3 (11725865_a_at) / Fold change /veh EBF3 (11725865_a_at) / RFU CAMK2N1 (11719241_x_at) / Fold change /veh CAMK2N1 (11719241_x_at) / RFU C5orf56 (11738088_a_at) / Fold change /veh C5orf56 (11738088_a_at) / RFU OLFML3 (11715873_a_at) / Fold change /veh OLFML3 (11715873_a_at) / RFU LOC100653217 /// NTM (11731650_a_at) / Fold change /veh LOC100653217 /// NTM (11731650_a_at) / RFU MAPK11 (11762145_a_at) / Fold change /veh MAPK11 (11762145_a_at) / RFU FIZ1 (11724087_x_at) / Fold change /veh FIZ1 (11724087_x_at) / RFU OASL (11726364_x_at) / Fold change /veh OASL (11726364_x_at) / RFU SOX15 (11748057_x_at) / Fold change /veh SOX15 (11748057_x_at) / RFU CD79A (11719716_a_at) / Fold change /veh CD79A (11719716_a_at) / RFU HIST1H1D (11736915_at) / Fold change /veh HIST1H1D (11736915_at) / RFU CASKIN2 (11723855_a_at) / Fold change /veh CASKIN2 (11723855_a_at) / RFU LOC730098 (11760151_x_at) / Fold change /veh LOC730098 (11760151_x_at) / RFU OR4N2 (11742367_at) / Fold change /veh OR4N2 (11742367_at) / RFU PRRT2 (11749266_a_at) / Fold change /veh PRRT2 (11749266_a_at) / RFU SNX32 (11753110_a_at) / Fold change /veh SNX32 (11753110_a_at) / RFU CDHR5 (11726645_a_at) / Fold change /veh CDHR5 (11726645_a_at) / RFU RCAN1 (11760418_a_at) / Fold change /veh RCAN1 (11760418_a_at) / RFU FAM167A (11723789_a_at) / Fold change /veh FAM167A (11723789_a_at) / RFU FAM26E (11764081_at) / Fold change /veh FAM26E (11764081_at) / RFU ISYNA1 (11749810_s_at) / Fold change /veh ISYNA1 (11749810_s_at) / RFU ACY1 (11761880_at) / Fold change /veh ACY1 (11761880_at) / RFU 11764098_at / Fold change /veh 11764098_at / RFU SAMD14 (11745864_x_at) / Fold change /veh SAMD14 (11745864_x_at) / RFU NPB (11741838_a_at) / Fold change /veh NPB (11741838_a_at) / RFU TMPRSS6 (11731388_a_at) / Fold change /veh TMPRSS6 (11731388_a_at) / RFU KRTAP10-2 (11738614_at) / Fold change /veh KRTAP10-2 (11738614_at) / RFU ARHGAP8 /// PRR5-ARHGAP8 (11727945_x_at) / Fold change /veh ARHGAP8 /// PRR5-ARHGAP8 (11727945_x_at) / RFU KRTAP5-7 /// NADSYN1 (11734609_at) / Fold change /veh KRTAP5-7 /// NADSYN1 (11734609_at) / RFU RASL12 (11751679_a_at) / Fold change /veh RASL12 (11751679_a_at) / RFU CDKN2B (11736163_a_at) / Fold change /veh CDKN2B (11736163_a_at) / RFU PRF1 (11729649_at) / Fold change /veh PRF1 (11729649_at) / RFU, ZNF638 /// ZNF638-IT1 / Fold change vs veh, ZNF638 /// ZNF638-IT1 / RFU, PANK3 / Fold change vs veh, PANK3 / RFU, SH3YL1 / Fold change vs veh, SH3YL1 / RFU, ZEB2 / Fold change vs veh, ZEB2 / RFU, NRIP1 / Fold change vs veh, NRIP1 / RFU, PTTG1IP / Fold change vs veh, PTTG1IP / RFU, CAPN2 / Fold change vs veh, CAPN2 / RFU, MED14 / Fold change vs veh, MED14 / RFU, SNORA58 / Fold change vs veh, SNORA58 / RFU, C1orf63 / Fold change vs veh, C1orf63 / RFU, LRRFIP1 / Fold change vs veh, LRRFIP1 / RFU, NDUFAF7 / Fold change vs veh, NDUFAF7 / RFU, SLC12A2 / Fold change vs veh, SLC12A2 / RFU, IBTK / Fold change vs veh, IBTK / RFU, ESF1 / Fold change vs veh, ESF1 / Fold change vs veh, TMEM50B / RFU, TAOK1 / Fold change vs veh, TAOK1 / RFU, ACBD3 / Fold change vs veh, ACBD3 / RFU, TMA16 / Fold change vs veh, TMA16 / RFU, RWDD3 / Fold change vs veh, RWDD3 / RFU, BCAT1 / Fold change vs veh, BCAT1 / RFU, EDEM3 / Fold change vs veh, EDEM3 / RFU, TMEM33 / Fold change vs veh, TMEM33 / RFU, WDR75 / Fold change vs veh, WDR75 / RFU, AHCTF1 / Fold change vs veh, AHCTF1 / RFU, TFRC / Fold change vs veh, TFRC / RFU, ZDHHC17 / Fold change vs veh, ZDHHC17 / RFU, NOM1 / Fold change vs veh, NOM1 / RFU, ARL8B / Fold change vs veh, ARL8B / RFU, ZBTB11 / Fold change vs veh, ZBTB11 / RFU, TAMM41 / Fold change vs veh, TAMM41 / RFU, KIAA1704 /// LOC100996395 / Fold change vs veh, KIAA1704 /// LOC100996395 / RFU, ING1 / Fold change vs veh, ING1 / RFU, TRMT61B / Fold change vs veh, TRMT61B / RFU, FUBP3 / Fold change vs veh, FUBP3 / RFU, TP53 / Fold change vs veh, TP53 / RFU, TNKS2 / Fold change vs veh, TNKS2 / RFU, ZFP14 / Fold change vs veh, ZFP14 / RFU, ACTR2 / Fold change vs veh, ACTR2 / RFU, PPP3R1 / Fold change vs veh, PPP3R1 / RFU, PIK3R1 / Fold change vs veh, PIK3R1 / RFU, HNRNPA1 / Fold change vs veh, HNRNPA1 / RFU, RNF170 / Fold change vs veh, RNF170 / RFU, ZNF28 / Fold change vs veh, ZNF28 / RFU, RNGTT / Fold change vs veh, RNGTT / RFU, OGT / Fold change vs veh, OGT / RFU, BRD1 / Fold change vs veh, BRD1 / RFU, MARS / Fold change vs veh, MARS / RFU, ZNF655 / Fold change vs veh, ZNF655 / RFU, FAHD1 / Fold change vs veh, FAHD1 / RFU, BDP1 / Fold change vs veh, BDP1 / RFU, LRRCC1 / Fold change vs veh, LRRCC1 / RFU, ARID1A / Fold change vs veh, ARID1A / RFU, ZNF146 / Fold change vs veh, ZNF146 / RFU, ZNF330 / Fold change vs veh, ZNF330 / RFU, GPN3 / Fold change vs veh, GPN3 / RFU, C9orf123 / Fold change vs veh, C9orf123 / RFU, N4BP2L2 / Fold change vs veh, N4BP2L2 / RFU, ARFIP1 / Fold change vs veh, ARFIP1 / RFU, FAM179B / Fold change vs veh, FAM179B / RFU, BCL10 / Fold change vs veh, BCL10 / RFU, UHRF1BP1L / Fold change vs veh, UHRF1BP1L / RFU, BET1 / Fold change vs veh, BET1 / RFU, CNOT2 / Fold change vs veh, CNOT2 / RFU, ZNF268 / Fold change vs veh, ZNF268 / Fold change vs veh, ZNF507 / RFU, DGCR2 / Fold change vs veh, DGCR2 / RFU, WDSUB1 / Fold change vs veh, WDSUB1 / Fold change vs veh, HSP90B1 /// MIR3652 / RFU, ADSS / Fold change vs veh, ADSS / RFU, GK / Fold change vs veh, GK / RFU, ZNF148 / Fold change vs veh, ZNF148 / RFU, TAF9 / Fold change vs veh, TAF9 / RFU, SLC1A5 / Fold change vs veh, SLC1A5 / RFU, SLMO2 / Fold change vs veh, SLMO2 / RFU, ABCC4 / Fold change vs veh, ABCC4 / RFU, LOC101060439 /// RAP1B / Fold change vs veh, LOC101060439 /// RAP1B / RFU, RFX7 / Fold change vs veh, RFX7 / RFU, GTPBP10 / Fold change vs veh, GTPBP10 / RFU, CNEP1R1 / Fold change vs veh, CNEP1R1 / RFU, BIVM-ERCC5 /// ERCC5 / Fold change vs veh, BIVM-ERCC5 /// ERCC5 / RFU, ILF3 / Fold change vs veh, ILF3 / RFU 11762660_at / Fold change /veh 11762660_at / RFU VCAN (11757783_s_at) / Fold change /veh VCAN (11757783_s_at) / RFU DDX43 (11728927_at) / Fold change /veh DDX43 (11728927_at) / RFU KRT8 (11758188_x_at) / Fold change /veh KRT8 (11758188_x_at) / RFU NKD1 (11759106_at) / Fold change /veh NKD1 (11759106_at) / RFU SRD5A1 (11742802_a_at) / Fold change /veh SRD5A1 (11742802_a_at) / RFU TPSAB1 /// TPSB2 (11721975_s_at) / Fold change /veh TPSAB1 /// TPSB2 (11721975_s_at) / RFU GSTM3 (11746129_a_at) / Fold change /veh GSTM3 (11746129_a_at) / RFU IL23R (11737362_x_at) / Fold change /veh IL23R (11737362_x_at) / RFU TMEM51 (11727254_a_at) / Fold change /veh TMEM51 (11727254_a_at) / RFU PIWIL2 (11732686_x_at) / Fold change /veh PIWIL2 (11732686_x_at) / RFU ORM1 (11744905_x_at) / Fold change /veh ORM1 (11744905_x_at) / RFU CCDC152 (11743942_at) / Fold change /veh CCDC152 (11743942_at) / RFU ECM1 (11717891_a_at) / Fold change /veh ECM1 (11717891_a_at) / RFU IL23R (11748794_a_at) / Fold change /veh IL23R (11748794_a_at) / RFU TNFAIP8L3 (11732012_x_at) / Fold change /veh TNFAIP8L3 (11732012_x_at) / RFU MBOAT4 (11741988_at) / Fold change /veh MBOAT4 (11741988_at) / RFU 11764193_at / Fold change /veh 11764193_at / RFU TMEM53 (11763286_at) / Fold change /veh TMEM53 (11763286_at) / RFU MAGEB2 (11727129_at) / Fold change /veh MAGEB2 (11727129_at) / RFU TMEM200A (11744735_a_at) / Fold change /veh TMEM200A (11744735_a_at) / RFU CCDC152 (11751479_a_at) / Fold change /veh CCDC152 (11751479_a_at) / RFU FAM211A (11726209_a_at) / Fold change /veh FAM211A (11726209_a_at) / RFU RGS16 (11746705_a_at) / Fold change /veh RGS16 (11746705_a_at) / RFU VCAN (11755009_s_at) / Fold change /veh VCAN (11755009_s_at) / RFU RHOB (11743442_s_at) / Fold change /veh RHOB (11743442_s_at) / RFU RGS16 (11720943_a_at) / Fold change /veh RGS16 (11720943_a_at) / RFU RGS16 (11720944_at) / Fold change /veh RGS16 (11720944_at) / RFU, VPS4B / Fold change vs veh, VPS4B / RFU, CREB1 / Fold change vs veh, CREB1 / RFU, DNAJC13 / Fold change vs veh, DNAJC13 / RFU, GNAQ / Fold change vs veh, GNAQ / RFU, CDK5R1 / Fold change vs veh, CDK5R1 / RFU, ZRANB3 / Fold change vs veh, ZRANB3 / RFU, CUL4A / Fold change vs veh, CUL4A / RFU, CCNY / Fold change vs veh, CCNY / RFU, UFL1 / Fold change vs veh, UFL1 / RFU, COG3 / Fold change vs veh, COG3 / RFU, DIAPH2 / Fold change vs veh, DIAPH2 / RFU, SKA2 / Fold change vs veh, SKA2 / RFU, AFF3 / Fold change vs veh, AFF3 / RFU, LMF1 / Fold change vs veh, LMF1 / RFU, IPO11 / Fold change vs veh, IPO11 / RFU, DFFB / Fold change vs veh, DFFB / RFU, FOXP1 / Fold change vs veh, FOXP1 / RFU, CARD8 / Fold change vs veh, CARD8 / RFU, STRN3 / Fold change vs veh, STRN3 / RFU, ADK / Fold change vs veh, ADK / RFU, RASSF2 / Fold change vs veh, RASSF2 / RFU, WIPF1 / Fold change vs veh, WIPF1 / RFU, LARP1B / Fold change vs veh, LARP1B / RFU, RASA1 / Fold change vs veh, RASA1 / RFU, RB1 / Fold change vs veh, RB1 / RFU, PPFIA1 / Fold change vs veh, PPFIA1 / RFU, MAT2A / Fold change vs veh, MAT2A / RFU, CCT5 / Fold change vs veh, CCT5 / RFU, WDR92 / Fold change vs veh, WDR92 / RFU, CUX1 / Fold change vs veh, CUX1 / RFU, TTC7A / Fold change vs veh, TTC7A / RFU, TMEM135 / Fold change vs veh, TMEM135 / RFU, DEPTOR / Fold change vs veh, DEPTOR / RFU, CPM / Fold change vs veh, CPM / RFU, DNAJB6 / Fold change vs veh, DNAJB6 / RFU, CACNA2D3 / Fold change vs veh, CACNA2D3 / RFU, DTX4 / Fold change vs veh, DTX4 / RFU, TFCP2 / Fold change vs veh, TFCP2 / RFU, GMCL1 /// GMCL1P1 / Fold change vs veh, GMCL1 /// GMCL1P1 / RFU, AEBP2 / Fold change vs veh, AEBP2 / RFU, SNHG1 /// SNORD22 /// SNORD25 /// SNORD26 /// SNORD27 /// SNORD28 /// SNORD29 /// SNORD31 / Fold change vs veh, SNHG1 /// SNORD22 /// SNORD25 /// SNORD26 /// SNORD27 /// SNORD28 /// SNORD29 /// SNORD31 / Fold change (Aza/veh), C12orf56 (ProbeSet 11735607_a_at) / Fold change (ACY-1035/veh), C12orf56 (ProbeSet 11735607_a_at) / Fold change (Aza/veh), FGFR1OP (ProbeSet 11751329_s_at) / Fold change (ACY-1035/veh), FGFR1OP (ProbeSet 11751329_s_at) / Fold change (Aza/veh), VPS36 (ProbeSet 11739960_a_at) / Fold change (ACY-1035/veh), VPS36 (ProbeSet 11739960_a_at) / RFU SYPL1 (11715823_x_at) / Fold change /veh SYPL1 (11715823_x_at) / RFU IGFBP7 (11715501_s_at) / Fold change /veh IGFBP7 (11715501_s_at) / RFU REEP3 (11722064_at) / Fold change /veh REEP3 (11722064_at) / RFU IGLL1 (11728026_x_at) / Fold change /veh IGLL1 (11728026_x_at): dose or concentration left out as unconfirmed
Conditions: MV-4-11 cells, 48 hours

## Nc1ccc(-c2cccs2)cc1NC(=O)c1ccc2c(c1)cc(C1CC1)n2CCN1CCOCC1 [ACY-1035]
  Fold change /veh CCDC152 (11751479_a_at): 1.05
